Measured values published in patent US20210300943A1, “OGA INHIBITOR COMPOUNDS” (Janssen Pharmaceutica NV, priority 2018, published 2021).

Molecular target: T1, recombinant human Meningioma Expressed Antigen 5 (MGEA5), also referred to as O-GlcNAcase (OGA) (Homo sapiens, UniProt O60502)
T1 construct: Full length OGA enzyme was purchased at OnGene (cat #TP322411); purchased OnGene (so in the source)
T1 sequence (O60502 1-916): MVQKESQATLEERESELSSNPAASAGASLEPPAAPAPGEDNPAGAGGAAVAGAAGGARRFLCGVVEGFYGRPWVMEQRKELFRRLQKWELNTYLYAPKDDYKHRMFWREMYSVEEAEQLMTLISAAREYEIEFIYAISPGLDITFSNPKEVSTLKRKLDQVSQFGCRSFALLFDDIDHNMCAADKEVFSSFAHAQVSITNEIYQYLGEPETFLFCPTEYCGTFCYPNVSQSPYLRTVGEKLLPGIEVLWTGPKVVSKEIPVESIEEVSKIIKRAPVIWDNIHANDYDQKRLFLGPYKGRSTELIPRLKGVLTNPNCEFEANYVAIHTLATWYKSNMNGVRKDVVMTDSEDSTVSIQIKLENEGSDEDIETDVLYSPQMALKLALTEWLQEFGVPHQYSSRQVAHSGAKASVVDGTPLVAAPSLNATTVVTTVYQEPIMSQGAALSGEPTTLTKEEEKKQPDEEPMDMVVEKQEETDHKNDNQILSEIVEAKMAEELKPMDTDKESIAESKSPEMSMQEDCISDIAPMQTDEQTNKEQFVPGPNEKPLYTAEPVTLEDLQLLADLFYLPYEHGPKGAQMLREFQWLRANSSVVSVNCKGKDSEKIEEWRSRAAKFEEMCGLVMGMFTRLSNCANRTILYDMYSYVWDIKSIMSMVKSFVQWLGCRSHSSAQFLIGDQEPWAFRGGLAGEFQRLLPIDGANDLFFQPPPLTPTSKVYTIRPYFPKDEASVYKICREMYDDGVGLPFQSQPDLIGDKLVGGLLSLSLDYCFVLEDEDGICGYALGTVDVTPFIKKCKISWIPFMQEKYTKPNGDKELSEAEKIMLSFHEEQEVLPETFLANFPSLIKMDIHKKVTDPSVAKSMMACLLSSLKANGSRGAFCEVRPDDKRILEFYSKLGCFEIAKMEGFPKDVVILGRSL
Test: OGA biochemical assay (inhibition of FM-GlcNAc hydrolysis, fluorescence)
Conditions: for Emax / Enzymatic Emax (%): maximal effect; for Emax: read-out: Enzymatic Emax (%); for IC50: read-out: Enzymatic hOGA, pIC50 (converted)
Excerpt: The assay is based on the inhibition of the hydrolysis of fluorescein mono-β-D-N-Acetyl-Glucosamine (FM-GlcNAc) (Mariappa et al. 2015, Biochem J 470:255) by the recombinant human Meningioma Expressed Antigen 5 (MGEA5), also referred to as O-GlcNAcase (OGA). The hydrolysis FM-GlcNAc (Marker Gene technologies, cat #M1485) results in the formation of β-D-N-glucosamineacetate and fluorescein. The fluorescence of the latter can be measured at excitation wavelength 485 nm and emission wavelength 538 nm. An increase in enzyme activity results in an increase in fluorescence signal. Full length OGA enzyme was purchased at OnGene (cat #TP322411). The enzyme was stored in 25 mM Tris.HCl, pH 7.3, 100 mM glycine, 10% glycerol at −20° C. Thiamet G and GlcNAcStatin were tested as reference compounds (Yuzwa et al. 2008 Nature Chemical Biology 4:483; Yuzwa et al. 2012 Nature Chemical Biology 8:393). The assay was performed in 200 mM Citrate/phosphate buffer supplemented with 0.005% Tween-20. 35.6 g Na2HPO42H2O (Sigma, #C0759) were dissolved in 1 L water to obtain a 200 mM solution. 19.2 g citric acid (Merck, #1.06580) was dissolved in 1 L water to obtain a 100 mM solution. pH of the sodiumphosphate solution was adjusted with the citric acid solution to 7.2. The buffer to stop the reaction consists of a 500 mM Carbonate buffer, pH 11.0. 734 mg FM-GlcNAc were dissolved in 5.48 mL DMSO to obtain a 250 mM solution and was stored at −20° C. OGA was used at a 2 nM concentration and FM-GlcNAc at a 100 uM final concentration. Dilutions were prepared in assay buffer.
50 nl of a compound dissolved in DMSO was dispensed on Black Proxiplate TM 384 Plus Assay plates (Perkin Elmer, #6008269) and 3 μl fl-OGA enzyme mix added subsequently. Plates were pre-incubated for 60 min at room temperature and then 2 μl FM-GlcNAc substrate mix added. […] Plates were briefly centrifuged for 1 min at 1000 rpm and incubate at room temperature for 6 h. To stop the reaction 5 μl STOP buffer were added and plates centrifuge again 1 min at 1000 rpm. Fluorescence was quantified in the Thermo Scientific Fluoroskan Ascent or the PerkinElmer EnVision with excitation wavelength 485 nm and emission wavelength 538 nm.
For analysis a best-fit curve is fitted by a minimum sum of squares method. From this an IC50 value and Hill coefficient was obtained. High control (no inhibitor) and low control (saturating concentrations of standard inhibitor) were used to define the minimum and maximum values.

Structure (SMILES)	Emax [%]	IC50 [nM]	Enzymatic Emax (%)
Cc1cc(C[C@H]2CCCN(C(C)c3ccc4c(n3)OCCO4)C2)cc(C)n1 (single isomer, unassigned) [Product 45]	98	501	–
Cc1cc(NC[C@H]2CCCN([C@H](C)c3ccc4c(n3)OCCO4)C2)cc(C(F)(F)F)n1 (single isomer, unassigned) [Product 32]	99	398	–
Cc1cc(C[C@H]2CCCN(Cc3cnc4c(c3)OCCN4C)C2)cc(C)n1 [Product 53]	94	794	–
COc1cc(NC[C@H]2CCCN(C(C)c3ccc4c(n3)OCCO4)C2)cc(C)n1 (single isomer, unassigned) [Product 25]	103	79.4	–
Cc1cc(C[C@H]2CCCN(C(C)c3ccc4c(c3)OCC(=O)N4)C2)cc(C)n1 (mixture of isomers) [Product 58]	102	126	–
COc1cc(C[C@H]2CCCN([C@@H](C)c3ccc4c(n3)OCCO4)C2)cc(C)n1 [Product 65]	102	200	–
Cc1cc(C[C@H]2CCCN(Cc3cnc4c(c3)OCC(=O)N4)C2)cc(C)n1 [Product 55]	90	1260	–
Cc1cc([C@@H]2CCCN([C@H](C)c3cc4c(cc3F)OCCO4)C2)cc(C(F)(F)F)n1 (single isomer, unassigned) [Product 141]	98	501	–
Cc1cc([C@H]2CCCN([C@@H](C)c3cc4c(cc3F)OCCO4)C2)cc(C(F)(F)F)n1 (single isomer, unassigned) [Product 144]	99	3.16	–
Cc1cc(NCC2CCCN(C(C)c3cc4c(cc3F)OCCO4)C2)cc(C)n1 (stereo not shown) [Product 37]	102	5.01	–
Cc1cc([C@H]2CCCN([C@@H](C)c3ccc4c(c3)OCC4)C2)cc(C)n1 (single isomer, unassigned) [Product 5]	102	3.16	–
Cc1cc(NCC2CCCN(C(C)c3ccc4c(n3)OCCO4)C2)cc(C(F)(F)F)n1 (single isomer, unassigned) [Product 34]	–	200	100
Cc1cc(C[C@H]2CCCN(C(C)c3ccc4c(n3)OCC(=O)N4)C2)cc(C)n1 (single isomer, unassigned) [Product 60]	–	3160	78
CC(c1ccc2c(n1)OCCO2)N1CCCC(Oc2ncc(F)cc2F)C1 (stereo not shown) [Product 134]	96	158	–
Cc1cc(O[C@@H]2CCCN([C@@H](C)c3cnc4c(c3)OCCN4)C2)cc(C(F)(F)F)n1 [Product 17]	99	79.4	–
Cc1cc(C[C@H]2CCCN(C(C)c3ccc4c(n3)OCC(=O)N4C)C2)cc(C)n1 (mixture of isomers) [Product 62]	77	3160	–
Cc1cc([C@@H]2CCCN([C@@H](C)c3cc4c(cc3F)OCCO4)C2)cc(C(F)(F)F)n1 (single isomer, unassigned) [Product 143]	87	2510	–

Structure (SMILES)	Emax [%]	IC50 [nM]	Enzymatic Emax (%)
Cc1cc(C[C@H]2CCCN(Cc3cnc4c(c3)OCC(=O)N4C)C2)cc(C)n1 [Product 127]	10	> 10000	–
Cc1cc(C[C@H]2CCCN(Cc3ccc4c(n3)OCC(=O)N4)C2)cc(C)n1 [Product 54]	78	3160	–
Cc1cc(C[C@H]2CCCN(Cc3cc4c(cc3C)OCCO4)C2)cc(C)n1 [Product 39]	92	794	–
COc1cc(NCC2CCCN(C(C)c3cc4c(cc3F)OCCO4)C2)cc(C)n1 (stereo not shown) [Product 38]	102	6.31	–
Cc1cc(C[C@H]2CCCN([C@H](C)c3cc4c(cc3F)OCCO4)C2)cc(C)n1 (single isomer, unassigned) [Product 41]	94	1000	–
COc1cc(NC[C@@H]2CCCN(C(C)c3ccc4c(n3)OCCO4)C2)cc(C)n1 (single isomer, unassigned) [Product 29]	–	79.4	97
Cc1cnc(C)c(C2CCCN(C(C)c3ccc4c(n3)OCCO4)C2)n1 (stereo not shown) [Product 12]	96	501	–
Cc1cc(C[C@H]2CCCN(C(C)c3cnc4c(c3)OCCN4)C2)cc(C)n1 (single isomer, unassigned) [Product 51]	101	200	–
Cc1cc(C[C@H]2CCCN(C(C)c3cc4c(cc3C)OCCO4)C2)cc(C)n1 (mixture of isomers) [Product 126]	1	> 10000	–
Cc1cc([C@H]2CCCN([C@H](C)c3cc4c(cc3F)OCCO4)C2)cc(C(F)(F)F)n1 (single isomer, unassigned) [Product 142]	52	–	–
Cc1cc([C@@H]2CCCN([C@H](C)c3ccc4c(c3)OCC4)C2)cc(C)n1 (single isomer, unassigned) [Product 6]	101	126	–
COc1cc(NC[C@@H]2CCCN(C(C)c3ccc4c(n3)OCCO4)C2)cc(C)n1 (mixture of isomers) [Product 27]	102	200	–
Cc1cc([C@H]2CCCN([C@H](C)c3ccc4c(c3)OCC4)C2)cc(C)n1 [Product 3]	97	794	–
Cc1cc(OC[C@@H]2CCCN(C(C)c3ccc4c(n3)OCCO4)C2)cc(C)n1 (mixture of isomers) [Product 20]	98	316	–
Cc1cc(C[C@H]2CCCN([C@@H](C)c3cnc4c(c3)OCCO4)C2)cc(C)n1 (single isomer, unassigned) [Product 131]	97	501	–
COc1cc(NC[C@@H]2CCCN(C(C)c3ccc4c(n3)OCCO4)C2)cc(C)n1 (single isomer, unassigned) [Product 28]	99	1000	–
Cc1cc(NCC2CCCN(C(C)c3ccc4c(n3)OCCO4)C2)cc(C(F)(F)F)n1 (single isomer, unassigned) [Product 35]	–	2510	88
